“And” between values parts separate entries of the source, which are not always exact repeats. Equal values may be shown once. Read-outs that look alike come from different tables or passages of the source.
System: human conjunctival tissue mast cells
Assay: Inhibition of anti-IgE induced histamine release from human conjunctival tissue mast cells (HCTMC)
Type: cell-based
Procedure: Methods detailing preparation of mono-dispersed HCTMC and mediator release studies with these cells have been described (U.S. Pat. No. 5,360,720 and Miller et al, Ocular Immunology and Inflammation, 4(1):39-49 (1996)). Briefly, human conjunctival tissue mast cells were isolated from post-mortem tissue donors obtained within 8 hours of death by various eye banks and transported in Dexsol® corneal preservation medium, or equivalent. Tissues were enzymatically digested by repeated exposure (30 min. at 37° C.) to collagenase and hyaluronidase (2× with 200 U each/gram tissue, then 2-4 × with 2000 U each/gram tissue) in Tyrode's buffer containing 0.1% gelatin. (Tyrode's buffer (in mM): 137 NaCl, 2.7 KCl, 0.35 NaH2PO4, 1.8 CaCl2, 0.98 MgCl2, 11.9 NaHCO3, and 5.5 glucose). Each digestion mixture was filtered over Nitex® cloth (100 μm mesh, Tetko, Briarcliff Manor, N.Y.) and washed with an equal volume of buffer. Filtrates were centrifuged at 825×g (7 min). Pellets were resuspended in buffer then combined for enrichment over a […] Percoll® cushion. The enriched pellet was washed, resuspended in supplemented RPMI 1640 medium and incubated at 37° C. to equilibrate.
Cells were harvested from the culture plate and counted for viability (trypan blue exclusion) and mast cell number (toluidine blue O). Mast cells (5000/tube; 1 mL final volume) were challenged (37° C.) for 15 min with goat-anti-human IgE (10 μg/mL) following treatment (15 minutes; 37° C.) with test drug or Tyrode's buffer. Total and non-specific release controls were exposed to 0.1% Triton X-100 and goat IgG (10 μg/mL), respectively. The reaction was terminated by centrifugation (500×g, 4° C., 10 min). Supernatants were stored at −20° C. until analyzed for histamine content by RIA (Beckman Coulter, Chicago, Ill.).
All test drugs were made to solution immediately prior to use. Each was dissolved in DMSO at 10 mM or greater concentration and then diluted in Tyrode's buffer containing 0.1% gelatin over the concentration for evaluation.
Inhibition of histamine release was determined by direct comparison of with anti-IgE challenged mast cells using Dunnett's t-test (Dunnett, “A multiple comparison procedure for comparing treatments with a control”, J. Amer. Stat. Assoc. (1955), 50:1096-1121).

[1] = Homo sapiens, Mast cell, bracketed value, apparently the mean of the individual determinations in the same cell, read-out: IC50(nM), value in square brackets
[2] = goat-anti-human IgE 10 μg/mL challenge 15 min after 15 min drug treatment, individual determinations (values outside brackets), read-out: IC50

**Q.** How did the IC50 [1] turn out when CNC(=O)c1ccccc1SSc1ccccc1C(=O)NC [Compound 4] was run?
**A.** Its IC50 is 282 nM.

**Q.** Which IC50 [1] does the source give for C=CCNC(=O)c1ccccc1SSc1ccccc1C(=O)NCC=C [Compound 3] here?
**A.** The IC50 was 148 nM.

**Q.** What does the source list for O=C(NCCCN1CCOCC1)c1ccccc1SSc1ccccc1C(=O)NCCCN1CCOCC1 [Compound 2]?
**A.** IC50 [1]: 105 nM; IC50 [2]: 78 nM and 199 nM and 39 nM

**Q.** Which IC50 [1] does the source give for CC(O)CNC(=O)c1ccccc1SSc1ccccc1C(=O)NCC(C)O (stereo not drawn) [Compound 5] here?
**A.** Its IC50 is 122 nM.

**Q.** And the IC50 [2]?
**A.** The IC50 was 107 nM and 219 nM and 229 nM and 84 nM and 71 nM.

**Q.** CNC(=O)c1cccc(SSc2cccc(C(=O)NC)c2)c1 [Compound 6] was tested. Which IC50 (Homo sapiens, Mast cell, 0.25 h, goat-anti-human IgE 10 μg/mL challenge 15 min after 15 min drug treatment, individual determinations (values outside brackets), read-out: IC50) did it give?
**A.** The IC50 was 402 nM.

**Q.** And the IC50 [1]?
**A.** The IC50 was 312 nM.

**Q.** What about the IC50 [2] of the same compound?
**A.** The IC50 was 222 nM.

From US6492418B2, “Compositions containing a benzamide disulfide derivative for treating allergic diseases” (Alcon Universal Ltd., priority 2000, dated 2002)
